Assay results from article PMC9295122, “Sialic Acid Derivatives Inhibit SiaT Transporters and Delay Bacterial Growth” (ACS Chemical Biology, 2022).
Like-named read-outs stand apart in the source and are kept apart here.

Experiments:
[1] = molecular target: SaSiaT (Staphylococcus aureus, UniProt A0A0H2XJ46); assay: nanoDSF thermal shift assay, SaSiaT; assay type: binding; conditions: for Average 1 / Average 2 / Average 3 / Replicate 1 / Replicate 2 / Replicate 3: SaSiaT Tm; for Average 1: average of experiment 1; for Average 2: average of experiment 2; for Average 3: average of experiment 3; for Replicate 1: experiment 1, second capillary; for Replicate 1 / Replicate 2 / Replicate 3 / Tm 1 / Tm2 / Tm 3 / Overall average (Tm): 1.25 mM; for Replicate 2: experiment 2, second capillary; for Replicate 3: experiment 3, second capillary; for Tm 1 / Tm2 / Tm 3 / Overall average (Tm): SaSiaT; for Tm 1: experiment 1, first capillary; for Tm2: experiment 2, first capillary; for Tm 3: experiment 3, first capillary; for Overall average (Tm): three experiments
Method: (§1) Nano-differential scanning fluorimetry (nanoDSF) is a high-throughput method that relies on the thermal stabilization of the folded protein state by a bound ligand.[33]
(§2) The melting points of protein–inhibitor complexes were measured on a Prometheus NT.48 instrument from NanoTemper Technologies. Solutions containing the protein at 2 μM in phosphate buffered saline with 0.0174% (w/v) dodecylmaltoside (DDM) and the ligand at 1.25 mM were loaded onto standard capillaries by NanoTemper. The temperature was increased from 25 to 95 °C at a ramp rate of 1 °C/min. The fluorescence was recorded at 330 and 350 nm and as a ratio of the two wavelengths.
(§3) The intensity ratio and its first derivative were calculated using manufacturer’s software (PR.ThermControl, version 2.1.2).
(§4) The melting temperatures have been measured in 3 separate experiments. In each experiment, two capillaries were included per compound, having therefore 2 technical replicates per experiment. In the table all data is presented. Tm1 and Replicate 1 represent the two replicates of the first experiment. Average 1 is the average between Tm 1 and Replicate 1. ΔTm 1 is the thermal shift when compared to the Tm of Neu5Ac. This is calculated from Average 1. The ΔTm presented in the article are the ΔTm average overall, which represent the overall average of the averages from the three experiments. The standard deviation (SD) is calculated from the […]

[2] = molecular target: T1, PmSiaT (Proteus mirabilis, UniProt B4EZY7); assay: nanoDSF thermal shift assay, PmSiaT; assay type: binding; conditions: for Average 1 / Average 2 / Average 3 / Replicate 1 / Replicate 2 / Replicate 3: PmSiaT Tm; for Average 1: average of experiment 1; for Average 2: average of experiment 2; for Average 3: average of experiment 3; for Replicate 1: experiment 1, second capillary; for Replicate 2: experiment 2, second capillary; for Replicate 3: experiment 3, second capillary; for Tm 1: experiment 1, first capillary; for Tm2: experiment 2, first capillary; for Tm 3: experiment 3, first capillary; for ΔTm at 1250 µM: read-out: ΔTm average overall
T1 construct: made in house
T1 sequence (B4EZY7 1-496): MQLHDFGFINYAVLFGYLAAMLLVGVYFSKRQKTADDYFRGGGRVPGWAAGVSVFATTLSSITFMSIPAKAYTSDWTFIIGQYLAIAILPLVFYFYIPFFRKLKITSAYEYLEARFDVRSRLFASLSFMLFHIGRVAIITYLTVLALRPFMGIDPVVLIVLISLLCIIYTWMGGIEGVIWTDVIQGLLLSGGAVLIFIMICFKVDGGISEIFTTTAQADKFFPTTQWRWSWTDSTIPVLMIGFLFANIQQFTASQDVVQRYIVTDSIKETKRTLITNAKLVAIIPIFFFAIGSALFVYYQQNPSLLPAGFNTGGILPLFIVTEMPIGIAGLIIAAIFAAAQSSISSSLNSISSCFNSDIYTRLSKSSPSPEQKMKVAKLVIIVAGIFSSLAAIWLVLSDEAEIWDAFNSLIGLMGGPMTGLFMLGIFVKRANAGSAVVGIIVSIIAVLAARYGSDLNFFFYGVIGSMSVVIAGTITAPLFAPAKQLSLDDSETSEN
Method: as §1, §2, §3, §4

[3] = PmSiaT, experiment 1, vs Neu5Ac, read-out: ΔTm 1
[4] = PmSiaT, experiment 2, vs Neu5Ac, read-out: ΔTm 2
[5] = PmSiaT, experiment 3, vs Neu5Ac, read-out: ΔTm 3
[6] = PmSiaT, three experiments, 1.25 mM
[7] = PmSiaT, three experiments, vs Neu5Ac, 1.25 mM

| Average 1 [1] [°C] | Average 2 [1] [°C] | Average 3 [1] [°C] | Replicate 1 [1] [°C] | Replicate 2 [1] [°C] | Replicate 3 [1] [°C] | Tm 1 [1] [°C] | Tm2 [1] [°C] | Tm 3 [1] [°C] | Overall average (Tm) [1] [°C] | Average 2 [2] [°C] | Average 3 [2] [°C] | Replicate 1 ([2]; 1.25 mM) [°C] | Replicate 2 ([2]; 1.25 mM) [°C] | Replicate 3 ([2]; 1.25 mM) [°C] | Tm 1 ([2]; PmSiaT, 1.25 mM) [°C] | ΔTm [2, 3] [°C] | Tm2 ([2]; PmSiaT, 1.25 mM) [°C] | Tm 3 ([2]; PmSiaT, 1.25 mM) [°C] | Tm average overall [2, 6] [°C] | SMILES | also measured |
| --- | --- | --- | --- | --- | --- | --- | --- | --- | --- | --- | --- | --- | --- | --- | --- | --- | --- | --- | --- | --- | --- |
| 56.4 | 56.2 | 56.7 | 56.4 | 56.2 | 56.4 | 56.4 | 56.3 | 56.9 | 56.4 | 53.2 | 53.1 | 53.4 | 53.4 | 53.2 | 53.1 | 4.2 | 53.1 | 53.0 | 53.2 | CC(=O)NC1C(OCc2ccc(F)cc2)CC(O)(C(=O)O)OC1C(O)C(O)CO (stereo not drawn) [Compound 3b] | Average 1 [2]: 53.2 °C; ΔTm [2, 4]: 4 °C; ΔTm [2, 5]: 3.8 °C; ΔTm at 1250 µM [2, 7]: 4 °C |
| 54.2 | 53.5 | 54.5 | 54.4 | 53.5 | 54.4 | 54.1 | 53.5 | 54.5 | 54.1 | 55.9 | 56.0 | 56.7 | 56.0 | 56.1 | 56.6 | 7.7 | 55.8 | 56.0 | 56.2 | CC(=O)NC1C(OCc2ccc(Br)cc2)CC(O)(C(=O)O)OC1C(O)C(O)CO (stereo not drawn) [Compound 3c] | Average 1 [2]: 56.7 °C; ΔTm [2, 4]: 6.7 °C; ΔTm [2, 5]: 6.7 °C; ΔTm at 1250 µM [2, 7]: 7 °C |
| 54.4 | 53.6 | 53.0 | 54.3 | 53.6 | 53.9 | 54.4 | 53.6 | 52.0 | 53.7 | 53.7 | 54.1 | 55.4 | 53.8 | 54.1 | 55.2 | 6.3 | 53.6 | 54.2 | 54.4 | CC(=O)NC1C(OCc2ccc(C#N)cc2)CC(O)(C(=O)O)OC1C(O)C(O)CO (stereo not drawn) [Compound 3d] | Average 1 [2]: 55.3 °C; ΔTm [2, 4]: 4.5 °C; ΔTm [2, 5]: 4.8 °C; ΔTm at 1250 µM [2, 7]: 5.2 °C |
| 40.8 | 41.9 | 42.2 | 40.9 | 41.8 | 42.1 | 40.8 | 42.0 | 42.3 | 41.6 | 46.8 | 46.7 | 46.8 | 46.8 | 46.6 | 46.8 | -2.2 | 46.8 | 46.7 | 46.8 | CCC(=O)NC1C(O)CC(O)(C(=O)O)OC1C(O)C(O)CO (stereo not drawn) [Compound 6a] | ΔTm [2, 4]: -2.4 °C; ΔTm [2, 5]: -2.6 °C; ΔTm at 1250 µM [2, 7]: -2.4 °C |
| 45.1 | 44.6 | 45.2 | 45.0 | 44.6 | 45.1 | 45.1 | 44.6 | 45.3 | 45.0 | 47.1 | 47.0 | 47.1 | 47.0 | 47.0 | 47.1 | -1.9 | 47.2 | 47.0 | 47.1 | CC(C)C(=O)NC1C(O)CC(O)(C(=O)O)OC1C(O)C(O)CO (stereo not drawn) [Compound 6b] | ΔTm [2, 4]: -2.1 °C; ΔTm [2, 5]: -2.3 °C; ΔTm at 1250 µM [2, 7]: -2.1 °C |
| 43.5 | 44.2 | 43.8 | 43.4 | 44.1 | 43.6 | 43.6 | 44.2 | 43.9 | 43.8 | 46.7 | 46.7 | 46.3 | 46.7 | 46.6 | 46.6 | -2.5 | 46.7 | 46.7 | 46.6 | CC(C)(C)C(=O)NC1C(O)CC(O)(C(=O)O)OC1C(O)C(O)CO (stereo not drawn) [Compound 6c] | ΔTm [2, 4]: -2.5 °C; ΔTm [2, 5]: -2.6 °C; ΔTm at 1250 µM [2, 7]: -2.5 °C |
| 46.2 | 45.6 | 46.0 | 46.1 | 45.8 | 45.6 | 46.2 | 45.4 | 46.4 | 45.9 | 45.9 | 45.7 | 45.2 | 45.9 | 45.9 | 45.1 | -3.8 | 45.8 | 45.5 | 45.6 | O=C(NC1C(O)CC(O)(C(=O)O)OC1C(O)C(O)CO)c1ccccc1 (stereo not drawn) [Compound 6d] | Average 1 [2]: 45.2 °C; ΔTm [2, 4]: -3.3 °C; ΔTm [2, 5]: -3.6 °C; ΔTm at 1250 µM [2, 7]: -3.6 °C |
| 51.2 | 51.0 | 51.4 | 51.3 | 51.1 | 51.1 | 51.2 | 51.0 | 51.8 | 51.2 | 46.2 | 46.0 | 45.5 | 46.0 | 45.9 | 45.2 | -3.6 | 46.3 | 46.1 | 45.8 | O=C(Cc1ccccc1)NC1C(O)CC(O)(C(=O)O)OC1C(O)C(O)CO (stereo not drawn) [Compound 6e] | Average 1 [2]: 45.4 °C; ΔTm [2, 4]: -3 °C; ΔTm [2, 5]: -3.3 °C; ΔTm at 1250 µM [2, 7]: -3.3 °C |

| SMILES | Average 1 [1] [°C] | Average 2 [1] [°C] | Average 3 [1] [°C] | Replicate 1 [1] [°C] | Replicate 2 [1] [°C] | Replicate 3 [1] [°C] | Tm 1 [1] [°C] | Tm2 [1] [°C] | Tm 3 [1] [°C] | Overall average (Tm) [1] [°C] | Average 2 [2] [°C] | Average 3 [2] [°C] | Replicate 1 ([2]; 1.25 mM) [°C] | Replicate 2 ([2]; 1.25 mM) [°C] | Replicate 3 ([2]; 1.25 mM) [°C] | Tm 1 ([2]; PmSiaT, 1.25 mM) [°C] | ΔTm [2, 3] [°C] | Tm2 ([2]; PmSiaT, 1.25 mM) [°C] | Tm 3 ([2]; PmSiaT, 1.25 mM) [°C] | Tm average overall [2, 6] [°C] | also measured |
| --- | --- | --- | --- | --- | --- | --- | --- | --- | --- | --- | --- | --- | --- | --- | --- | --- | --- | --- | --- | --- | --- |
| O=C(CF)NC1C(O)CC(O)(C(=O)O)OC1C(O)C(O)CO (stereo not drawn) [Compound 6f] | 52.0 | 51.2 | 51.9 | 52.0 | 51.2 | 51.8 | 52.0 | 51.2 | 52.1 | 51.7 | 47.6 | 47.4 | 47.4 | 47.6 | 47.3 | 47.4 |  | 47.7 | 47.4 | 47.5 | Average 1 [2]: 47.4 °C; ΔTm at 1250 µM [2]: -1.7 °C |
